How the values were obtained:
[1] = system: Escherichia coli (E. coli) BAS849; experiment: Antibacterial activity, microbroth dilution MIC (Table 1); format: cell-based; details: microbroth dilution, super sensitive Gram-negative E. coli BAS849, read-out: MIC, BAS849
Summary of the method: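 Microbroth dilution was used. MIC, in μg/mL, is the lowest drug concentration preventing macroscopically visible growth under the test conditions.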

[2] = system: Staphylococcus aureus (S. aureus) 29213; experiment: as above; format: cell-based; details: microbroth dilution, Gram-positive S. aureus 29213, read-out: MIC, 29213
Summary of the method: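 Potency is reported as minimum inhibitory concentration in μg/mL, determined by broth microdilution as the lowest level of compound that stops growth visible to the eye.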

[3] = system: E. coli 25922; experiment: as above; format: cell-based, Escherichia coli; details: Escherichia coli; microbroth dilution; control Gram-negative E. coli 25922 strain; read-out: MIC, 25922
Summary of the method: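 Broth microdilution; endpoint = no macroscopic growth; value = lowest inhibiting concn, μg/mL.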

[4] = system: E. coli LZ3111; experiment: Antibacterial activity, MIC, quinolone resistant strain (Table 2); format: cell-based; details: Escherichia coli, LZ3111, read-out: MIC LZ3111
Summary of the method: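 MIC values (μg/mL) came from a microbroth dilution assay, scored as the lowest drug concentration at which no growth was visible by eye.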

[5] = system: Acinetobacter baumannii (A. baumannii) BAA747; experiment: Antibacterial activity, MIC (Table 4); format: cell-based; details: A. baumannii BAA747, read-out: MIC, BAA747
Summary of the method: (§1)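 Activity was measured by microbroth dilution. The MIC, in μg/mL, is the lowest drug concentration that prevents macroscopically visible growth under the test conditions. The resistant strains are multi-drug resistant clinical isolates.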

[6] = system: Klebsiella pneumoniae (K. pneumoniae) 35657; experiment: Antibacterial activity, MIC (Table 4); format: cell-based; details: K. pneumoniae 35657, read-out: MIC, 35657
Summary of the method: as §1

[7] = system: A. baumannii MXX2240; experiment: Antibacterial activity, MIC, resistant strain (Table 4); format: cell-based; details: Acinetobacter baumannii, MXX2240; resistant A. baumannii MMX2240, multi-drug resistant clinical isolate; read-out: MIC, MMX2240
Summary of the method: as §1

[8] = system: K. pneumoniae MXX1232; experiment: as above; format: cell-based; details: Klebsiella pneumoniae, MXX1232; resistant K. pneumoniae MMX1232, multi-drug resistant clinical isolate; read-out: MIC, MMX1232
Summary of the method: as §1

[9] = system: Pseudomonas aeruginosa (P. aeruginosa) 27853; experiment: Antibacterial activity, MIC (Table 5); format: cell-based; details: P. aeruginosa 27853, read-out: MIC, 27853
Summary of the method: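 Values are MICs in μg/mL, read as the lowest concentration at which no growth is visible by eye. They were determined by a microbroth dilution method.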

Measured: MIC

CCc1c(-c2ccc3[nH]c(-c4ccccc4)cc3c2)[nH]c(=O)c(C(=O)O)c1O [Cpd 454, 5-ethyl-4-hydroxy-2-oxo-6-(2-phenyl-1H-indol-5-yl)-1,2-dihydropyridine-3-carboxylic acid]
< 1 µg/mL: [1] | [2]
12.5 to 150 µg/mL: all other assays above

Cc1c(-c2ccc3c(c2)cc(CNCCO)n3C)[nH]c(=O)c(C(=O)O)c1O [Cpd 350, 4-hydroxy-6-(2-((2-hydroxyethylamino)methyl)-1-methyl-1H-indol-5-yl)-5-methyl-2-oxo-1,2-dihydropyridine-3-carboxylic acid]
3.5 to 12.5 µg/mL: [1] | [4]
12.5 to 150 µg/mL: all other assays above

Cc1c(-c2ccc3c(c2)cc(CNC2(C)CC2)n3C)[nH]c(=O)c(C(=O)O)c1O [Cpd 356, 4-hydroxy-5-methyl-6-(1-methyl-2-((1-methylcyclopropylamino)methyl)-1H-indol-5-yl)-2-oxo-1,2-dihydropyridine-3-carboxylic acid]
12.5 to 150 µg/mL: [8] | [9]
3.5 to 12.5 µg/mL: [2] | [3] | [6]
< 1 µg/mL: all other assays above

CCc1c(-c2ccc3c(c2)c(F)c(CNC(C)C)n3C)[nH]c(=O)c(C(=O)O)c1O [Cpd 370, 5-ethyl-6-(3-fluoro-2-((isopropylamino)methyl)-1-methyl-1H-indol-5-yl)-4-hydroxy-2-oxo-1,2-dihydropyridine-3-carboxylic acid]
1 to 3.5 µg/mL: [5]
< 1 µg/mL: [1] | [3]
12.5 to 150 µg/mL: [8] | [9]
3.5 to 12.5 µg/mL: all other assays above

CCCc1ccc2[nH]c(-c3[nH]c(=O)c(C(=O)O)c(O)c3CC)cc2c1 [Cpd 383, 5-ethyl-4-hydroxy-2-oxo-6-(5-propyl-1H-indol-2-yl)-1,2-dihydropyridine-3-carboxylic acid]
< 1 µg/mL: [1]
3.5 to 12.5 µg/mL: [2]
12.5 to 150 µg/mL: all other assays above

CCc1c(-c2cc3ccc(OC)cc3[nH]2)[nH]c(=O)c(C(=O)O)c1O [Cpd 379, 5-ethyl-4-hydroxy-6-(6-methoxy-1H-indol-2-yl)-2-oxo-1,2-dihydropyridine-3-carboxylic acid]
3.5 to 12.5 µg/mL: [1]
12.5 to 150 µg/mL: all other assays above

CCNCc1cc2cc(-c3[nH]c(=O)c(C(=O)O)c(O)c3C)ccc2n1C [Cpd 342, 6-(2-((ethylamino)methyl)-1-methyl-1H-indol-5-yl)-4-hydroxy-5-methyl-2-oxo-1,2-dihydropyridine-3-carboxylic acid]
1 to 3.5 µg/mL: [3] | [7]
< 1 µg/mL: [1] | [4] | [6]
3.5 to 12.5 µg/mL: [5]
12.5 to 150 µg/mL: all other assays above

CCc1c(-c2ccc3cc(CN(C)C)[nH]c3c2)[nH]c(=O)c(C(=O)O)c1O.Cl [Cpd 441, 6-(2-((dimethylamino)methyl)-1H-indol-6-yl)-5-ethyl-4-hydroxy-2-oxo-1,2-dihydropyridine-3-carboxylic acid hydrochloride]
1 to 3.5 µg/mL: [2] | [5]
3.5 to 12.5 µg/mL: [7]
< 1 µg/mL: [1] | [3] | [6]
12.5 to 150 µg/mL: all other assays above

CCc1c(-c2cc3cc(F)c(C)cc3[nH]2)[nH]c(=O)c(C(=O)O)c1O [Cpd 385, 5-ethyl-6-(5-fluoro-6-methyl-1H-indol-2-yl)-4-hydroxy-2-oxo-1,2-dihydropyridine-3-carboxylic acid]
3.5 to 12.5 µg/mL: [2]
< 1 µg/mL: [1]
12.5 to 150 µg/mL: all other assays above

From US9409905B2, “Antibacterial compounds and methods for use” (PTC THERAPEUTICS, INC., priority 2011, dated 2016)
